Consider five compounds from patent publication US12559509B1, “Citrate coordination complex of an orally-delivered beta-lactamase inhibitor and uses thereof” (priority 2023, dated 2026).

The nature of data set [1]: Chemical stability of drug substance controls and binary blend, HPLC purity. The note with it: for degradation (in words): controls and binary blend, 25° C. and 40° C., through 12 weeks. It counts as physicochemical.
A short description of data set [2]: Excipient compatibility at 50° C., HPLC purity. It counts as physicochemical. The conditions noted are these: for chemical stability in the presence of the excipients (in words): accelerated data. The method, then: The compatibility of the drug substances with select functional excipients was confirmed by comparing the assay and purity of samples stored at 50° C. for 5 weeks to the drug substance control samples. The excipients tested included: microcrystalline cellulose (binder); magnesium stearate (lubricant); sodium starch glycolate (disintegrant); and colloidal silica (glidant). […] The samples were transferred to a 3-dram glass vial with a tight-fitting cap and placed in a 50° C. oven.

The nature of data set [3]: Dissolution testing (Apparatus II method) of capsule prototypes. It counts as physicochemical. The note with it: FDC capsule with ceftibuten dihydrate, 900 mL pH 6.8 50 mM sodium bicarbonate buffer, 75 RPM paddle. The method, then:
In some embodiments, the citrate coordination complex allows for the development of a dry powder, immediate release formulation as compared to other forms, such as the ethanolate, which could not be formulated directly as an immediate release formulation. […] Dissolution testing (Apparatus II method) was performed using 900 mL of pH 6.8 50 mM sodium bicarbonate buffer solution and a 75 RPM paddle speed.

The conditions of data set [4]: monkeys, reported; cited from earlier work.
A short description of data set [5]: Dynamic Vapor Sorption (DVS) analysis. It counts as physicochemical. The method, then: Moisture sorption/desorption data were collected on a DVS-intrinsic vapor sorption analyzer (Surface Measurement Systems NA, Allentown, PA, USA) and operated with DVS-intrinsic control software (Version 1.0.5.1). Samples were not dried prior to analysis. Sorption and desorption data were collected over a range from 5% to 98% relative humidity (RH) via 10% RH increments under a nitrogen purge. The equilibrium criterion used for analysis was less than 0.005% weight change in 10 min with a maximum equilibration time of 3 h.
The DVS isotherm of Form B is qualitatively similar to that of Form A. Form B lost 0.1 wt % upon equilibration at ˜0% RH.

The mark [6] stands for this setting: drug substance control, 25° C. Storage, 0 weeks.
Setting [7] is: drug substance control, 25° C. Storage, 5 weeks.
Where [8] appears, read: drug substance control, 25° C. Storage, 8 weeks.
Setting [9] is: drug substance control, 25° C. Storage, 12 weeks.
The mark [10] stands for this setting: drug substance control, 40° C. Storage, 0 weeks.
The mark [11] stands for this setting: drug substance control, 40° C. Storage, 5 weeks.
Where [12] appears, read: drug substance control, 40° C. Storage, 8 weeks.
Setting [13] is: drug substance control, 40° C. Storage, 12 weeks.
[14] abbreviates: in binary Blend, 25° C. Storage, 0 weeks.
Setting [15] is: in binary Blend, 25° C. Storage, 5 weeks.
Where [16] appears, read: in binary Blend, 25° C. Storage, 8 weeks.
[17] abbreviates: in binary Blend, 25° C. Storage, 12 weeks.
Where [18] appears, read: in binary Blend, 40° C. Storage, 0 weeks.
The mark [19] stands for this setting: in binary Blend, 40° C. Storage, 8 weeks.
The mark [20] stands for this setting: in binary Blend, 40° C. Storage, 12 weeks.

Counter-ions that a name gives are not always drawn.

The bioavailability is dose-corrected exposure relative to a reference, in per cent.

As for `CCC(=O)N[C@@H](Cc1cccc(C(=O)OCOC(=O)C(CC)CC)c1O)B1OC(=O)C(CC(=O)O)(CC(=O)O)O1` [Compound 1 citrate coordination complex, (R)-2,2′-(2-(2-(3-((((2-ethylbutanoyl)oxy)methoxy)carbonyl)-2-hydroxyphenyl)-1-propionamidoethyl)-5-oxo-1,3,2-dioxaborolane-4,4-diyl)diacetic acid], the “degradation (in words)” value in data set [1] was “no degradation”. The “HPLC purity (% peak area)” value in data set [1] (setting [6]), in data set [1] (setting [7]), in data set [1] (setting [8]), in data set [1] (setting [9]), in data set [1] (setting [10]) and in data set [1] (setting [11]) was 100.0% each time. The “HPLC purity (% peak area)” value in data set [1] (setting [12]), in data set [1] (setting [13]), in data set [1] (setting [14]), in data set [1] (setting [15]), in data set [1] (setting [16]) and in data set [1] (setting [17]) was 100.0% in each case. The “HPLC purity (% peak area)” value in data set [1] (setting [18]) turned out to be 100.0%; in data set [1] (in binary Blend, 40° C. Storage, 5 weeks), 100.0%; in data set [1] (setting [19]), 100.0%; in data set [1] (setting [20]), 100.0%. In addition, the “HPLC Purity (Peak Area %) Compound 1” value in data set [2] (2 weeks) and in data set [2] (5 weeks) was 100.0% throughout. For the same compound, the “chemical stability in the presence of the excipients (in words)” value in data set [2] is listed as “comparable to the stability for the drug substance controls”. The “release of the drug substance” value in data set [3] (by 10 minutes) turned out to be 100%.
As for `Nc1nc(/C(=C/CC(=O)O)C(=O)N[C@@H]2C(=O)N3C(C(=O)O)=CCS[C@H]23)cs1` [Ceftibuten, reference compound], the “chemical stability in the presence of the excipients (in words)” value in data set [2] is “comparable to the stability for the drug substance controls”. In data set [4], the bioavailability is approximately 20%.
For the compound `CCC(=O)N[C@@H](Cc1cccc(C(=O)OCOC(=O)C(CC)CC)c1O)B(O)O.O=C(O)CC(O)(CC(=O)O)C(=O)O` [(R)-(2-(3-((((2-ethylbutanoyl)oxy)methoxy)carbonyl)-2-hydroxyphenyl)-1-propionamidoethyl)boronic acid citrate], the “solid form after DVS cycle, by XRPD” value in data set [5] (0% RH to 98% RH and back to 0% RH) was “XRPD of the sample matched that of the material before DVS analysis”. Further, the “Change In Mass (%)-ref, Desorption” value is given as −0.17% in data set [5] (Target RH 0.0 %); −0.13% in data set [5] (Target RH 5.0 %); −0.05% in data set [5] (Target RH 15.0 %); 0.06% in data set [5] (Target RH 25.0 %); 0.13% in data set [5] (Target RH 35.0 %); 0.25% in data set [5] (Target RH 45.0 %). In addition, the “Change In Mass (%)-ref, Desorption” value in data set [5] (Target RH 55.0 %) was 0.43%; in data set [5] (Target RH 65.0 %), 0.56%; in data set [5] (Target RH 85.0 %), 1.11%; in data set [5] (Target RH 95.0 %), 11.32%; in data set [5] (Target RH 98.0 %), 11.18%; in data set [5] (Target RH […]), 0.79%. Also, the “Change In Mass (%)-ref, Sorption” value in data set [5] (Target RH 0.0 %) is −0.07%; in data set [5] (Target RH 5.0 %), −0.05%; in data set [5] (Target RH 15.0 %), 0.04%; in data set [5] (Target RH 25.0 %), 0.13%; in data set [5] (Target RH 35.0 %) it was 0.17%; in data set [5] (Target RH 45.0 %) it was 0.31%. Besides, the “Change In Mass (%)-ref, Sorption” value in data set [5] (Target RH 55.0 %) is given as 0.41%; in data set [5] (Target RH 65.0 %), 0.53%; in data set [5] (Target RH 85.0 %), 0.98%; in data set [5] (Target RH 95.0 %), 8.47%; in data set [5] (Target RH 98.0 %), 11.18%; in data set [5] (Target RH […]) it was 0.66%. Moreover, the “Change In Mass (%)-ref, Hysteresis” value is on record as −0.07% in data set [5] (Target RH 5.0 %); −0.08% in data set [5] (Target RH 15.0 %); −0.07% in data set [5] (Target RH 25.0 %); −0.04% in data set [5] (Target RH 35.0 %); −0.06% in data set [5] (Target RH 45.0 %); 0.02% in data set [5] (Target RH 55.0 %). In addition, the “Change In Mass (%)-ref, Hysteresis” value in data set [5] (Target RH 65.0 %) is 0.03%; in data set [5] (Target RH 85.0 %) it was 0.13%; in data set [5] (Target RH 95.0 %), 2.85%; in data set [5] (Target RH […]), 0.12%. Moreover, the weight gain in data set [5] (above 85% RH (up to 98% RH)) is recorded as 11.2%. In data set [5] (at ˜0% RH), the “weight lost upon equilibration” value is 0.1 wt %. Moreover, the “weight gain with increasing RH” value in data set [5] (between 0% RH and 85% RH) was approximately 1.0 wt %.
Take `CCOB1Oc2c(cccc2C(=O)OCOC(=O)C(CC)CC)C[C@@H]1NC(=O)CC` [Compound 1 Ethanolate, ((2-ethylbutanoyl)oxy)methyl (R)-2-ethoxy-3-propionamido-3,4-dihydro-2H-benzo[e][1,2]oxaborinine-8-carboxylate]: in data set [3] (at 60 minutes), the “release of the drug substance” value is listed as less than 40%.
Take `Nc1nc(/C(=C/CC(=O)O)C(=O)N[C@@H]2C(=O)N3C(C(=O)O)=CCS[C@H]23)cs1` [Ceftibuten dihydrate, reference compound]: the “degradation (in words)” value in data set [1] is reported as “temperature dependent degradation”. For the same compound, the “HPLC purity (% peak area)” value in data set [1] (setting [6]) is on record as 98.6%; in data set [1] (setting [7]), 98.6%; in data set [1] (setting [8]) it was 98.6%; in data set [1] (setting [9]) it was 98.4%; in data set [1] (setting [10]), 98.6%; in data set [1] (setting [11]) it was 98.4%. The “HPLC purity (% peak area)” value worked out at 96.7% in data set [1] (setting [12]); 92.8% in data set [1] (setting [13]); 98.4% in data set [1] (setting [14]); 98.6% in data set [1] (setting [15]); 98.3% in data set [1] (setting [16]); 96.8% in data set [1] (setting [17]). Further, the figures for the “HPLC purity (% peak area)” value in data set [1] (setting [18]), in data set [1] (setting [19]) and in data set [1] (setting [20]) were 97.5%, 94.8% and 93.7%, respectively. The “HPLC Purity (Peak Area %) Ceftibuten” value in data set [2] (2 weeks) was 99.2%; in data set [2] (5 weeks), 94.8%.
